Results: PMC9963138 (Molecules, 2023)
“Also recorded” adds a separate entry of the source. Positions of bridges follow the written chain, without caps; N, C: chain ends. Non-standard residues stand in square brackets, D forms with d. Residues, ends and D or L forms follow the SMILES beside them. Pen = CC(C)(S)[C@H](N)C(=O)O; Orn = NCCC[C@H](N)C(=O)O

Experiments:
C57BL/6J mice [1] = assay: 55 °C warm-water tail-withdrawal test, compound alone
Procedure: Graded doses of OL-CTOP (100, 300 or 600 μg) were first administered through the intranasal (i.n.s.) route.
All mice were lightly anesthetized with isoflurane (0.4%) prior to compound administration. […] The volume of all i.c.v. injections was 5 μL, using a 10-μL Hamilton microliter syringe. An incision was made in the scalp of the lightly anesthetized mouse, and the injection was made 2 mm lateral and 2 mm caudal to bregma at a depth of 3 mm.
The 55 °C warm-water tail-withdrawal test was performed as previously described [73]. The distal 2.5 cm of a mouse tail was immersed in warm (55 °C) water contained in a 1.5-L heated water bath. The time from the onset of the noxious heat stimulus to the withdrawal of the tail from the heat source was recorded.

asialofetuin (ASF) = biological target: T1, asialofetuin (ASF) (Bos taurus, UniProt P12763); assay: Carbohydrate-binding study by isothermal titration calorimetry (ITC)
T1 construct: purchased Sigma-Aldrich
T1 sequence (P12763 19-359): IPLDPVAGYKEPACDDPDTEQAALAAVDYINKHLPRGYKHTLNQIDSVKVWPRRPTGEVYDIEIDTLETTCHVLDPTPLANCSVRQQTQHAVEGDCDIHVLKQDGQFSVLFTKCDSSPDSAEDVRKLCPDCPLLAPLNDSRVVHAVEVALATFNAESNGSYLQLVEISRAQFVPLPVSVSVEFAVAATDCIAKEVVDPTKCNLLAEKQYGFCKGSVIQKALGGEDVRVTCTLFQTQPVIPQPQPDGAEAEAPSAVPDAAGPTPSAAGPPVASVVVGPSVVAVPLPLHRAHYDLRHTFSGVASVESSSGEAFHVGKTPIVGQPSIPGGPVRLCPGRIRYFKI
Procedure: We have shown previously that odorranalectin binds to model glycoproteins containing terminal Fuc, Gal and GalNAc sugar moieties with μM affinities and identified the binding interface. […] The binding affinities of OL-CTOP toward ASF were determined by Isothermal Titration Calorimetry (ITC). […] The enthalpy (ΔH) of the binding interaction between OL-CTOP and ASF was −131 kJ/mol, whereas the entropy (−TΔS) was 109.5 kJ/mol, showing that the OL-CTOP/ASF interaction is an enthalpy-driven process, which is typical for interactions between lectins and carbohydrate ligands.
A binding study was performed at 25 °C in 20 mM HEPES at pH 7.0 by using a titration calorimeter PEAQ-ITC (Malvern, Northampton, MA) with a reaction cell volume of 300 μL. Typically, asialofetuin solutions (240 μM) were in the reaction cell and titrated with solutions of OL-CTOP at a concentration of 4000 μM. OL-CTOP and asialofetuin were dialyzed and prepared in the same buffer. At least 18 consecutive injections of 2 μL were applied every 120 s interval at a constant stir speed of 750 rpm. The concentrations of OL-CTOP and ASF were confirmed by measurements using a BioTek Epoch microplate spectrophotometer (Agilent Technologies, Santa Clara, CA, USA). The raw integrated heat plots were analyzed using the MicroCal PEAQ-ITC software v1.21 (Malvern) under the 1-set-of-sites model, and the control parameter as a fitted offset was applied to each titration as per the manufacturer’s guidelines and our previous applications. The reported thermodynamic parameters were derived from two independent experiments and then averaged.

[2] = biological target: T2, trypsin immobilized on agarose resin (Bos taurus, UniProt P00760); assay: Proteolytic stability toward immobilized trypsin; conditions: RP-HPLC and MALDI-TOF MS
T2 sequence (P00760 24-246): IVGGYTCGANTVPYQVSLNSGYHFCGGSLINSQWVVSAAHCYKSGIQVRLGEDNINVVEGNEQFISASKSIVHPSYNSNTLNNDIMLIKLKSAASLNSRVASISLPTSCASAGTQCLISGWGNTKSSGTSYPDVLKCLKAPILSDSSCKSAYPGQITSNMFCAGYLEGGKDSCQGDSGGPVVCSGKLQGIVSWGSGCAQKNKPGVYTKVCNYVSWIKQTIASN
Procedure: Immobilized trypsin helped eliminate enzyme digest contamination and thus simplify sample analysis. […] After incubation at 37 °C for 20 min, 1 h, and 16 h, 20 μL of treated samples was collected and analyzed by analytical RP-HPLC and MALDI-TOF MS (Supplementary Materials).

MOR = biological target: T3, MOR (Mus musculus, UniProt P42866); assay: 55 °C warm-water tail-withdrawal test, antagonism of i.c.v. morphine; type: in vivo, C57BL/6J mice; conditions: mice, p = 0.003
T3 construct: MOR antagonism by CTOP was confirmed in vivo by pretreating mice with the parent peptide; from tissue; host or cells: living male C57BL/6J mice (central nervous system)

KOR = KOR (Mus musculus, UniProt P33534); assay: 55 °C warm-water tail-withdrawal test, antagonism of KOR-selective agonist U50,488; conditions: mice; 100 μg i.n.s. pretreatment; U50,488 100 nmol i.c.v.; p = 0.99; 7–8 mice
Procedure: (§1) All solutions for animal administration were prepared fresh daily. All mice were lightly anesthetized with isoflurane (0.4%) prior to compound administration. […] The volume of all i.c.v. injections was 5 μL, using a 10-μL Hamilton microliter syringe. An incision was made in the scalp of the lightly anesthetized mouse, and the injection was made 2 mm lateral and 2 mm caudal to bregma at a depth of 3 mm.
(§2) The distal 2.5 cm of a mouse tail was immersed in warm (55 °C) water contained in a 1.5-L heated water bath. The time from the onset of the noxious heat stimulus to the withdrawal of the tail from the heat source was recorded.

C57BL/6J mice [3] = assay: Breathing rate in mice (Oxymax/CLAMS), morphine-induced respiratory depression; type: in vivo
Procedure: Mice were administered intranasal saline or OL-CTOP (100 or 600 μg) 45 min prior to intraperitoneal morphine (20 mg/kg).
Respiration rates (in breaths per minute) were assessed using the Oxymax/CLAMS system (Columbus Instruments, Columbus, OH, USA) as described previously. Mice were habituated to their individual sealed housing chambers for 60 min before testing. Mice were administered morphine (20 mg/kg, i.p.) or vehicle, as indicated, and 5 min later, confined to the CLAMS testing chambers. Additional mice received pretreatment with saline (i.n.s.) or OL-CTOP (100 or 600 μg, i.n.s.) 45 min prior to morphine (20 mg/kg, i.p.). Pressure monitoring within the sealed chambers measured the frequency of respiration. Respiration data were averaged over 20 min periods for 120 min post-i.p. injection of the saline or morphine. Data are presented as % vehicle response ± SEM, breaths per minute.

DOR = DOR (Mus musculus, UniProt P32300); assay: 55 °C warm-water tail-withdrawal test, antagonism of DOR-selective agonist SNC-80; conditions: mice; 100 μg i.n.s. pretreatment; SNC-80 100 nmol i.c.v.; p = 0.67; 7–8 mice
Procedure: as §1, §2

[4] = system: tosylsulfonyl phenylalanyl chloromethyl ketone (TPCK) trypsin immobilized on agarose resin; assay: TPCK trypsin immobilized on agarose resin in digestion buffer (0.1 M NH4HCO3 [pH 8.0]); conditions: 37 °C, up to 16 h (methods); 24 h (results, b12 and Figure 2)
[5] = system: model glycoproteins containing terminal Fuc, Gal and GalNAc sugar moieties; conditions: cited from earlier work
Excerpt: We have shown previously that odorranalectin binds to model glycoproteins containing terminal Fuc, Gal and GalNAc sugar moieties with μM affinities and identified the binding interface.

[6] = in vivo; cited from earlier work
Excerpt: Opioid medication misuse, addiction, and overdose are growing public health problems nationwide. Methadone, buprenorphine, naltrexone and naloxone are the only FDA-approved medications to treat opioid use disorder (OUD) and, in the case of opioid receptor antagonists naltrexone and naloxone, overdose. […] Given their potency, peptides represent particularl ...

μ-opioid receptors (MOR) [7] = conditions: cited from earlier work
μ-opioid receptors (MOR) [8] = conditions: cited from earlier work; remark: listed apart in the source
[9] = 25 °C, 20 mM HEPES pH 7.0, average of two independent experiments

T3 sequence (P42866 whole entry): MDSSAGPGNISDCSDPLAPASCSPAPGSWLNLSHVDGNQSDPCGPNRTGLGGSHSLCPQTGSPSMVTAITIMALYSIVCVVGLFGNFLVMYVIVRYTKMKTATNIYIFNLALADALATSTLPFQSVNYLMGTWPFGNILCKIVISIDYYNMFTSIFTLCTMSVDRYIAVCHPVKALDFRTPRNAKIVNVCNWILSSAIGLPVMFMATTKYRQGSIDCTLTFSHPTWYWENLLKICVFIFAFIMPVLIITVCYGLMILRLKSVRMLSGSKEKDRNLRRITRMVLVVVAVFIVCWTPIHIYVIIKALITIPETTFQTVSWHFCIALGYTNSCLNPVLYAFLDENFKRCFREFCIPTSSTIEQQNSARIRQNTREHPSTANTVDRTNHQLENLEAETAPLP
Sequence of DOR (P32300 whole entry): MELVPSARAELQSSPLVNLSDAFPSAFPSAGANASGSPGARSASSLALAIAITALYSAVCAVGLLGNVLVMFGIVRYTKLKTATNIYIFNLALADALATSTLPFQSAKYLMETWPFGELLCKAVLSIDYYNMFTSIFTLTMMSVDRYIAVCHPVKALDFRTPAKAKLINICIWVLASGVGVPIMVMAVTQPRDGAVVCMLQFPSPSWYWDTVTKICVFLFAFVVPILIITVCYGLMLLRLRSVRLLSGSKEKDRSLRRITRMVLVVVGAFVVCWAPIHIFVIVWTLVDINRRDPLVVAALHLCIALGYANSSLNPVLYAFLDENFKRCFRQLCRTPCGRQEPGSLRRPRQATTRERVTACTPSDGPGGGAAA
Sequence of KOR (P33534 whole entry): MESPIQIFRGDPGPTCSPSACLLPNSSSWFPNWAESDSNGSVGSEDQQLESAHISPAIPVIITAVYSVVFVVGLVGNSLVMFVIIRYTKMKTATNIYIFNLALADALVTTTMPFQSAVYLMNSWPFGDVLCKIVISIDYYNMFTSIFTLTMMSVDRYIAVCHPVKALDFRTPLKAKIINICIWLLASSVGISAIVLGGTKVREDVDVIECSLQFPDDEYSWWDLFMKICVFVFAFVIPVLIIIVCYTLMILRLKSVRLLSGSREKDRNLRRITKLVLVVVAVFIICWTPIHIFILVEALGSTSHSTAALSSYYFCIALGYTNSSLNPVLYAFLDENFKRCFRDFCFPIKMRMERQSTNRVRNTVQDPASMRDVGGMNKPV

Compound: C[C@H](NC(=O)[C@@H](N)Cc1ccc(O)cc1)C(=O)N[C@@H](CO)C(=O)N1CCC[C@H]1C(=O)N[C@@H](CCCCN)C(=O)N[C@H]1CSSC[C@@H](C(=O)N[C@H](C(N)=O)[C@@H](C)O)NC(=O)[C@H]([C@@H](C)O)NC(=O)[C@H]2NC(=O)[C@H]([C@@H](C)O)NC(=O)[C@H](CCCN)NC(=O)[C@@H](Cc3c[nH]c4ccccc34)NC(=O)[C@H](Cc3ccc(O)cc3)NC(=O)[C@H](CSSC2(C)C)NC(=O)[C@@H](Cc2ccccc2)NC(=O)[C@H](CCCNC(=N)N)NC(=O)[C@H](Cc2ccccc2)NC1=O [OL-CTOP] (H-YASPKCFR[dF]CY[dW][Orn]T[Pen]TCT-NH2; disulfide 6-17, 10-15; N-terminus assumed)
- increase in tail withdrawal latency from baseline, peptide alone (C57BL/6J mice [1]; mice, 100, 300 or 600 μg i.n.s., out to 30 min post-administration, p = 0.01): ~ 1 s
- ΔG of binding (asialofetuin (ASF); 20 mM HEPES pH 7.0, one-set-of-sites model): -21.5 kJ/mol
- Kd (asialofetuin (ASF); 25 °C, 20 mM HEPES pH 7.0, ASF 240 μM in cell, peptide 4000 μM, one-set-of-sites model, average of two independent experiments, read-out: Kd, OL-CTOP/ASF binding): 176 µM
- enthalpy (ΔH) of binding (asialofetuin (ASF); [9]): -131 kJ/mol
- entropy (−TΔS) of binding (asialofetuin (ASF); [9]): 109.5 kJ/mol
- further cleavage after 1 h incubation with trypsin ([2]; 1 h, immobilized TPCK trypsin, 0.1 M NH4HCO3 pH 8.0, 37 °C): the peptide bond between Arg^8 and phe^9 was also cleaved
- parent peptide remaining after the first 10 min with trypsin ([2]; TPCK trypsin immobilized on agarose, 20 TAME units, 0.1 M NH4HCO3 pH 8.0, 1 mg peptide, 37 °C): without a detectable trace of the parent peptide
- antagonism of MOR-preferring agonist morphine (selectivity test) (MOR; 100 μg i.n.s. pretreatment, morphine 10 nmol i.c.v., 7–8 mice): significant antagonism
- antagonism of morphine antinociception, intranasal pretreatment 30-600 μg (MOR; 30, 100, 300 or 600 μg i.n.s., morphine 10 nmol i.c.v. after return to baseline at 45 min, latency 20, 30, 40 min afterward, five to eight mice): significant general reduction in the antinociceptive effect of morphine
- antagonism of KOR-selective agonist U50,488 (KOR): without effect
- protection from morphine-induced respiratory depression, 100 μg (C57BL/6J mice [3]; 100 μg i.n.s. 45 min prior to morphine 20 mg/kg i.p., p = 0.05 at 20–40 min, p = 0.02 at 40–60 min vs morphine alone): significantly prevented morphine-induced respiratory depression
- respiration rate versus vehicle-treated mice, late period, 100 μg (C57BL/6J mice [3]; 100 μg i.n.s. before morphine 20 mg/kg i.p., 60–120 min, p ≤ 0.03): elevated respiration
- respiration rate versus vehicle-treated mice out to 60 min, 100 μg (C57BL/6J mice [3]; 100 μg i.n.s. before morphine 20 mg/kg i.p., p = 0.06, 0.55 and 0.75): no significant differences in respiration rate
- protection from morphine-induced respiratory depression, 600 μg (C57BL/6J mice [3]; 600 μg i.n.s. 45 min prior to morphine 20 mg/kg i.p., p ≤ 0.009, 0–60 min vs morphine alone): significantly prevented morphine-induced respiratory depression
- respiration rate versus vehicle-treated mice, 600 μg (C57BL/6J mice [3]; 600 μg i.n.s. before morphine 20 mg/kg i.p., 20–120 min, p ≤ 0.04): elevated respiration
- antagonism of DOR-selective agonist SNC-80 (DOR): without effect

Compound: Y-A-S-P-K-C-F-R-f-C-Y-w-O-T-Pen-T-C-T-NH2
- cleaved bond [4]: K-C, first_seen, within the first 10 min; also recorded: Arg8-phe9, major, 1 h

Compound: CN1CC[C@]23c4c5ccc(O)c4O[C@H]2[C@@H](O)C=C[C@H]3[C@H]1C5 [morphine, reference compound]
- tail-withdrawal latency after the agonist alone (C57BL/6J mice [1]; control (naïve) mice, 10 nmol i.c.v., versus baseline 1.49 ± 0.09 s, p < 0.0001): significant increase in tail-withdrawal latency
- respiration after morphine with saline pretreatment versus vehicle alone (C57BL/6J mice [3]; morphine 20 mg/kg i.p. after i.n.s. saline, 10–60 min, p < 0.0001): significant, time-dependent respiratory depression

Compound: YASPK-cyclo(CFRYPNGVLAC)T (disulfide) [odorranalectin]
- affinity for model glycoproteins [5]: μM affinities

Compound: oxytocin
- plasma t1/2 [6]: 1 to 6 min
- t1/2 in the extracellular space of the brain and in the CSF [6]: approximately 30 min

Compound: C[C@@H](O)[C@H](NC(=O)[C@H]1NC(=O)[C@H]([C@@H](C)O)NC(=O)[C@H](CCCN)NC(=O)[C@@H](Cc2c[nH]c3ccccc23)NC(=O)[C@H](Cc2ccc(O)cc2)NC(=O)[C@@H](NC(=O)[C@H](N)Cc2ccccc2)CSSC1(C)C)C(N)=O [CTOP, H-D-Phe-cyclo(Cys-Tyr-D-Trp-Orn-Thr-Pen)-Thr-NH2]
- MOR antagonism, times more potent than naloxone (μ-opioid receptors (MOR) [7]): 10–400 times
- affinity for μ-opioid receptors (MOR) (μ-opioid receptors (MOR) [8]): 2.8 nM
